From patent US12054510B2, “2′ and/or 5′ amino-acid ester phosphoramidate 3′-deoxy adenosine derivatives as anti-cancer compounds” (Nucana plc, priority 2014, dated 2024)

What was measured:
CCRFCEM = assay: Solid tumour and haematological malignancy assay (CellTiterGlo); type: cell-based; conditions: Homo sapiens, CCRF-CEM, 72 h, read-out: MI %
Procedure: (§1) In vitro viability assay were performed to assess the effects of compounds on cell viability in selected cell lines over 72 hr using the CellTiterGlo (CTG, Promega-G7573) assay. […] Cell viability assay using CellTiterGlo in 96-well plate were performed. Compound treatment 72 hrs, standard growth conditions, duplicates. Compounds were dissolved to 40 mM with thawed 100%. […] After compounds were dissolved in media, media containing compounds were warmed to 37° C. in incubator and then compounds in media were added to cell plates (50 μl+50 μl) in duplicates. […] All compound solubilities were checked and recorded again, then the plates were transferred to CO2 tissue culture incubator immediately and incubated for 3 days. DMSO final concentration is 0.5%.

BxPC-3-Luc = assay: as above; type: cell-based; conditions: 72 hr, Table VII
Procedure: (§2) In vitro viability assay were performed to assess the effects of compounds on cell viability in selected cell lines over 72 hr using the CellTiterGlo (CTG, Promega-G7573) assay. The tests were performed in duplicates with treatment of compounds at 9 points, 3.16 folds titration in 96 well plates over ˜72 hr. The compound starting concentrations were […]. Cell viability assay using CellTiterGlo in 96-well plate were performed. Compound treatment 72 hrs, standard growth conditions, duplicates. Compounds were dissolved to 40 mM with thawed […]. Compounds were serially diluted at 3.16 fold in thawed DMSO, and warmed to 37° C. before being dissolved in media (2 μl+200 μl). After compounds were dissolved in media, media containing compounds were warmed to 37° C. in incubator and then compounds in media were added to cell plates (50 μl+50 μl) in duplicates. The compounds' final concentrations were from 198M to 19.9 nM. All compound solubilities were checked and recorded again, then the plates were transferred to CO2 tissue culture incubator immediately and incubated for 3 days. DMSO final concentration is 0.5%.

MOLT-4 [1] = assay: as above; type: cell-based; conditions: Homo sapiens, MOLT-4, 72 h, read-out: MI %
Procedure: as §2

NCI-H929 = assay: as above; type: cell-based; conditions: Homo sapiens, NCI-H929, 72 h, read-out: MI %
Procedure: as §2

RL = assay: as above; type: cell-based; conditions: Homo sapiens, 72 h, read-out: MI %
Procedure: as §2

KG-1 [2] = assay: as above; type: cell-based; conditions: Homo sapiens, KG-1, 72 h, read-out: MI %
Procedure: as §1

HT29 = assay: as above; type: cell-based; conditions: Homo sapiens, HT-29, 72 h, read-out: MI %
Procedure: as §1

MCF7 = assay: as above; type: cell-based; conditions: Homo sapiens, MCF7, 72 h, read-out: MI %
Procedure: as §1

CEM (TdT+ve) = assay: ATP ViaLight plus cell viability assay; type: cell-based, Human; conditions: CEM
Procedure: (§3) Certain compounds of the invention were subjected to further studies to test the cytotoxic activity of certain compounds of the invention and also to measure their activity against 4 haematological cancer cell lines • TdT positive CEM (Human ALL) • TdT negative K562 (Human CML) • TdT negative H1-60 (Human ANLL) • RL (CRL-2261) non-HD lymphoma • The concentrations of the active metabolite dATP (Cordycepin triphosphate) in these cell lines was also measured. • The cytotoxic activity and the intracellular 3′-dATP concentrations were also studied in the presence of hENT1, Adenosine Kinase (AK) and Adenosine Deaminase pharmacological inhibitors in CEM and RL cancer cell lines. Said inhibitors that mimic known cancer resistance mechanisms. Methods Cell Culture
(§4) HL-60, K562, CCRF-CEM and RL cell lines were cultured in RPMI-1640 medium (Sigma Aldrich, UK), which were supplemented with 10% Fetal Bovine Serum (FBS) (PAA Laboratories), 1% amphotericin B (5.5 ml) and 1% penicillin/streptomycin (5.5 ml) (PAA Laboratories) and grown in flasks at 37° C. incubator with 5% CO2.
(§5) The amount of ATP was used as a measurement of cell number and cell viability. ATP ViaLight™ plus assay kit (Lonza, USA: Product No. LT07-121) to detect ATP in cells treated in luminescence compatible 96 well plates (initial concentration of cells was 1×10^4 cells/well) with cordycepin and ProTides at concentrations of: 0, 0.1, 0.5, 1, 5 and 10 μM, followed by incubation for 72 hours at 37° C. incubator with 5% CO2. For inhibitor studies, 10 μM of NBTI or 1 μM EHNA or A-134974 was added and left for 5 minutes before adding the drugs (see section 5 for inhibitor details).
(§6) After incubation, 50 μl of cell lysis reagent was added to the 96 well plates to release the intracellular ATP, followed by 100 μl of ATP monitoring reagent (AMR). The luminescent values of each well were determined using FLUOstar OPTIMA microplate reader (BMG Labtech) which convert ATP into light by using luciferase enzyme. Therefore, the amount of luminescence produced was directly proportional to the amount of ATP.
(§7) Cell lines were treated in the same way as described above but before treatment with drugs, a number of inhibitors were added: • 1) Nitrobenzylthioinosine (NBTI) (Sigma-Aldrich, St. Louis, MO, product # N2255) blocks nucleoside transporters • 2) EHNA hydrochloride (Sigma-Aldrich, St. Louis, MO, product # E114) blocks adenosine deaminase • 3) Adenosine kinase inhibitor A-134974 dihydrochloride hydrate (Sigma-Aldrich, St. Louis, MO, product # A2846): blocks adenosine kinase
(§8) The dose-response curves of cytotoxicity of the drugs was determined using non-linear regression analysis of percentage cell viability versus concentration and EC50 values were obtained. The intracellular assay was conducted in five replicates for each condition. Intracellular assay was determined using paired t test (two-tailed) analysis of 3′ ATP/ATP concentration and p-values were obtained. For all the analysis, Prism Software program (GraphPad Software) was used and Microsoft Powerpoint® 2013 was used to plot the results.

K562 = assay: CellTiterGlo cell viability assay, initial screening; type: cell-based; conditions: 72 hr, Table II
Procedure: (§9) In vitro viability assays were performed to assess the effects of compounds on cell viability in 7 selected cell lines over 72 hr using the CellTiterGlo (CTG, Promega-G7573) assay. The tests were performed in duplicates with treatment of compounds at 9 points, 3.16 folds titration in 96 well plates over ˜72 hr. The compound starting concentrations were […]. Cell viability assay using CellTiterGlo in 96-well plate were performed. The compound treatment was 72 hrs, under standard growth conditions, and in duplicate. Compounds were dissolved to 40 mM with thawed […]. Compounds were serially diluted at 3.16 fold in thawed DMSO, and warmed to 37° C. before being dissolved in media (2 μl+200 μl). After compounds were dissolved in media (media was also warmed to 37° C.). Media containing compounds were warmed to 37° C. in incubator and then compounds in media were added to cell plates (50 μl+50 μl), in duplicates. The compounds final concentrations were from […] to 19.9 nM. All compound solubilities were checked and recorded again, then the plates were transferred to CO2 tissue culture incubator immediately and incubated for 3 days. DMSO final concentration is 0.5%.

MOLT-4 [3] = assay: as above; type: cell-based; conditions: human, 72 h
Procedure: as §9

HepG2 = assay: as above; type: cell-based; conditions: HepG2; 72 hr; Table II
Procedure: as §9

KG-1 [4] = assay: as above; type: cell-based; conditions: human, 72 h
Procedure: as §9

MCF-7 = assay: as above; type: cell-based; conditions: human, 72 h
Procedure: as §9

CCRF-CEM = assay: as above; type: cell-based; conditions: human, 72 h
Procedure: as §9

HL-60 = assay: as above; type: cell-based; conditions: human, 72 h
Procedure: as §9

BxPC-3 = assay: Solid tumour and haematological malignancy assay (CellTiterGlo); type: cell-based; conditions: 72 hr
Procedure: as §2

Jurkat = assay: as above; type: cell-based; conditions: 72 hr
Procedure: as §2

RL (CRL-2261) = assay: ATP ViaLight plus cell viability assay; type: cell-based
Procedure: as §3, §4, §5, §6, §7, §8

CCCCCOC(=O)[C@H](CC(C)C)NP(=O)(OC[C@@H]1C[C@H](O)[C@H](n2cnc3c(N)nc(OC)nc32)O1)Oc1cccc2ccccc12 (stereo partly drawn) [Compound M]
Emax (CCRFCEM): 100%

CC(NP(=O)(OC[C@@H]1C[C@@H](O)[C@H](n2cnc3c(N)nc(Cl)nc32)O1)Oc1cccc2ccccc12)C(=O)OCc1ccccc1 (stereo in doubt) [S, (2R)-benzyl 2-((((2S,4R,5R)-5-(6-amino-2-chloro-9H-purin-9-yl)-4-hydroxytetrahydrofuran-2-yl)methoxy)(naphthalen-1-yloxy)phosphorylamino)propanoate]
MI % (BxPC-3-Luc): 82.6%

COc1nc(N)c2ncn([C@@H]3O[C@H](COP(=O)(N[C@@H](C)C(=O)OCc4ccccc4)Oc4cccc5ccccc45)C[C@H]3O)c2n1 (stereo partly drawn) [K, (2S)-benzyl 2-((((2S,4R,5R)-5-(6-amino-2-methoxy-9H-purin-9-yl)-4-hydroxytetrahydrofuran-2-yl)methoxy)(naphthalen-1-yloxy)phosphorylamino)propanoate]
Emax (MOLT-4 [1]): 104%
Emax (NCI-H929): 102%
Emax (RL): 104%
Emax (KG-1 [2]): 99%
Emax (HT29): 98%
Emax (CCRFCEM): 102%
Emax (MCF7): 99%

Nc1ncnc2c1ncn2[C@@H]1O[C@H](CO)C[C@H]1O [Cordycepin, 3′-deoxyadenosine, reference compound]
(FD) fold difference compared to control (CEM (TdT+ve); AK): 3
(FD) fold difference compared to control (CEM (TdT+ve); EHNA): −16
(FD) fold difference compared to control (CEM (TdT+ve); NBTI): 5
M.I. %: maximum percentage inhibition of cell viability (K562): 88%
M.I. %: maximum percentage inhibition of cell viability (MOLT-4 [3]): 52%
M.I. %: maximum percentage inhibition of cell viability (HepG2): 66%
M.I. %: maximum percentage inhibition of cell viability (KG-1 [4]): 78%
M.I. %: maximum percentage inhibition of cell viability (MCF-7): 78%
M.I. %: maximum percentage inhibition of cell viability (CCRF-CEM): 12%
M.I. %: maximum percentage inhibition of cell viability (HL-60): 88%
MI % (BxPC-3): 22%
MI % (Jurkat): 20%
(FD) fold difference compared to control (RL (CRL-2261); AK): 4
(FD) fold difference compared to control (RL (CRL-2261); EHNA): 2
(FD) fold difference compared to control (RL (CRL-2261); NBTI): 2
